Test results from ChEMBL document CHEMBL3885881, “DrugMatrix”.

Species on record: Rattus norvegicus
Experiment: DrugMatrix - Regimen: Daily Repeat
Type: toxicity, organism-based, Sprague-Dawley
Parameters: regimen Daily Repeat, gender Male, age 6-8 weeks
Settings: in vivo, po, route oral GAVAGE, vehicle .5 % CMC; for BASOPHIL / EOSINOPHIL / ERYTHROCYTE COUNT / HEMATOCRIT / HEMOGLOBIN / LEUKOCYTE COUNT / LYMPHOCYTE / MEAN CORPUSCULAR HEMOGLOBIN / MEAN CORPUSCULAR HEMOGLOBIN CONCENTRATION / MEAN CORPUSCULAR VOLUME / MONOCYTE / NEUTROPHIL / PLATELET COUNT: tissue Blood; for ALANINE AMINOTRANSFERASE / ALBUMIN / ALKALINE PHOSPHATASE / ASPARTATE AMINOTRANSFERASE / BLOOD UREA NITROGEN / CHLORIDE / CHOLESTEROL / CREATINE PHOSPHOKINASE / CREATININE / GLUCOSE / PHOSPHORUS / POTASSIUM / SODIUM / TOTAL BILIRUBIN / TOTAL PROTEIN: tissue Plasma
[1] = 20 mg/kg, 72 h, dose level Low, time 3 day
[2] = 20 mg/kg, 120 h, dose level Low, time 5 day
[3] = 380 mg/kg, 72 h, dose level High, time 3 day
[4] = 380 mg/kg, 120 h, dose level High, time 5 day

## CNCCCC12CCC(c3ccccc31)c1ccccc12 [MAPROTILINE]
[1]
  BASOPHIL: 0%
  EOSINOPHIL: 0.33%
  ERYTHROCYTE COUNT: 5.97 x10E6/uL
  HEMATOCRIT: 35.97%
  HEMOGLOBIN: 14.2 G/DL
  LEUKOCYTE COUNT: 11.3 x10E3/uL
  LYMPHOCYTE: 87.33%
  MEAN CORPUSCULAR HEMOGLOBIN: 23.77 pg
  MEAN CORPUSCULAR HEMOGLOBIN CONCENTRATION: 39.47 G/DL
  MEAN CORPUSCULAR VOLUME: 60.2 fL
  MONOCYTE: 1.67%
  NEUTROPHIL: 10.67%
  PLATELET COUNT: 1123 x10E3/uL
  ALANINE AMINOTRANSFERASE: 39.33 u/L
  ALBUMIN: 3.83 G/DL
  ALKALINE PHOSPHATASE: 403 u/L
  ASPARTATE AMINOTRANSFERASE: 64 u/L
  BLOOD UREA NITROGEN: 12.67 mg/dL
  CHLORIDE: 106.67 MEQ/L
  CHOLESTEROL: 71.67 mg/dL
  CREATINE PHOSPHOKINASE: 175 u/L
  CREATININE: 0.67 mg/dL
  GLUCOSE: 177.33 mg/dL
  PHOSPHORUS: 12.37 mg/dL
  POTASSIUM: 6.9 MEQ/L
  SODIUM: 151.33 MEQ/L
  TOTAL BILIRUBIN: 0.57 mg/dL
  TOTAL PROTEIN: 6.1 G/DL
[2]
  BASOPHIL: 0%
  EOSINOPHIL: 1%
  ERYTHROCYTE COUNT: 6.02 x10E6/uL
  HEMATOCRIT: 36.33%
  HEMOGLOBIN: 15.57 G/DL
  LEUKOCYTE COUNT: 13.27 x10E3/uL
  LYMPHOCYTE: 86.33%
  MEAN CORPUSCULAR HEMOGLOBIN: 25.9 pg
  MEAN CORPUSCULAR HEMOGLOBIN CONCENTRATION: 42.9 G/DL
  MEAN CORPUSCULAR VOLUME: 60.4 fL
  MONOCYTE: 1.33%
  NEUTROPHIL: 11.33%
  PLATELET COUNT: 1112.33 x10E3/uL
  ALANINE AMINOTRANSFERASE: 38.67 u/L
  ALBUMIN: 3.83 G/DL
  ALKALINE PHOSPHATASE: 339.67 u/L
  ASPARTATE AMINOTRANSFERASE: 60 u/L
  BLOOD UREA NITROGEN: 14.33 mg/dL
  CHLORIDE: 108.67 MEQ/L
  CHOLESTEROL: 65.33 mg/dL
  CREATINE PHOSPHOKINASE: 168.67 u/L
  CREATININE: 0.7 mg/dL
  GLUCOSE: 182.33 mg/dL
  PHOSPHORUS: 12 mg/dL
  POTASSIUM: 6.77 MEQ/L
  SODIUM: 149 MEQ/L
  TOTAL BILIRUBIN: 0.6 mg/dL
  TOTAL PROTEIN: 6.27 G/DL
[3]
  BASOPHIL: 0%
  EOSINOPHIL: 0.33%
  ERYTHROCYTE COUNT: 6.59 x10E6/uL
  HEMATOCRIT: 38.93%
  HEMOGLOBIN: 15.5 G/DL
  LEUKOCYTE COUNT: 12 x10E3/uL
  LYMPHOCYTE: 88.67%
  MEAN CORPUSCULAR HEMOGLOBIN: 23.53 pg
  MEAN CORPUSCULAR HEMOGLOBIN CONCENTRATION: 39.8 G/DL
  MEAN CORPUSCULAR VOLUME: 59.17 fL
  MONOCYTE: 2.33%
  NEUTROPHIL: 8.67%
  PLATELET COUNT: 1142.67 x10E3/uL
  ALANINE AMINOTRANSFERASE: 38 u/L
  ALBUMIN: 3.63 G/DL
  ALKALINE PHOSPHATASE: 350.33 u/L
  ASPARTATE AMINOTRANSFERASE: 63.67 u/L
  BLOOD UREA NITROGEN: 14.33 mg/dL
  CHLORIDE: 106.33 MEQ/L
  CHOLESTEROL: 88.67 mg/dL
  CREATINE PHOSPHOKINASE: 166.33 u/L
  CREATININE: 0.5 mg/dL
  GLUCOSE: 164.67 mg/dL
  PHOSPHORUS: 10.83 mg/dL
  POTASSIUM: 6.27 MEQ/L
  SODIUM: 152.33 MEQ/L
  TOTAL BILIRUBIN: 0.4 mg/dL
  TOTAL PROTEIN: 5.93 G/DL
[4]
  BASOPHIL: 0%
  EOSINOPHIL: 1%
  ERYTHROCYTE COUNT: 7.43 x10E6/uL
  HEMATOCRIT: 42%
  HEMOGLOBIN: 16.1 G/DL
  LEUKOCYTE COUNT: 7.2 x10E3/uL
  LYMPHOCYTE: 85%
  MEAN CORPUSCULAR HEMOGLOBIN: 21.7 pg
  MEAN CORPUSCULAR HEMOGLOBIN CONCENTRATION: 38.3 G/DL
  MEAN CORPUSCULAR VOLUME: 56.5 fL
  MONOCYTE: 1%
  NEUTROPHIL: 13%
  PLATELET COUNT: 1275 x10E3/uL
  ALANINE AMINOTRANSFERASE: 81 u/L
  ALBUMIN: 3.7 G/DL
  ALKALINE PHOSPHATASE: 457 u/L
  ASPARTATE AMINOTRANSFERASE: 158 u/L
  BLOOD UREA NITROGEN: 17.5 mg/dL
  CHLORIDE: 108 MEQ/L
  CHOLESTEROL: 44.5 mg/dL
  CREATINE PHOSPHOKINASE: 289 u/L
  CREATININE: 0.65 mg/dL
  GLUCOSE: 206 mg/dL
  PHOSPHORUS: 12.6 mg/dL
  POTASSIUM: 7.3 MEQ/L
  SODIUM: 151.5 MEQ/L
  TOTAL BILIRUBIN: 0.35 mg/dL
  TOTAL PROTEIN: 5.95 G/DL
